Results published in ChEMBL document CHEMBL3860067, “Investigation of the structure activity relationship of flufenamic acid derivatives at the human TRESK channel K2P18.1” (Bioorg Med Chem Lett, 2016).
Calls of active or inactive are those of the source. No cut-off for these calls is given here.

Assays:
[1] = biological target: T1, Potassium channel subfamily K member 18 (Homo sapiens, UniProt Q7Z418); test: Channel blocking activity at human TRESK channel expressed in HEK293 cells at 100 uM by whole cell patch clamp assay; format: cell-based; conditions: hek293, 100 µM
T1 sequence (Q7Z418 whole entry): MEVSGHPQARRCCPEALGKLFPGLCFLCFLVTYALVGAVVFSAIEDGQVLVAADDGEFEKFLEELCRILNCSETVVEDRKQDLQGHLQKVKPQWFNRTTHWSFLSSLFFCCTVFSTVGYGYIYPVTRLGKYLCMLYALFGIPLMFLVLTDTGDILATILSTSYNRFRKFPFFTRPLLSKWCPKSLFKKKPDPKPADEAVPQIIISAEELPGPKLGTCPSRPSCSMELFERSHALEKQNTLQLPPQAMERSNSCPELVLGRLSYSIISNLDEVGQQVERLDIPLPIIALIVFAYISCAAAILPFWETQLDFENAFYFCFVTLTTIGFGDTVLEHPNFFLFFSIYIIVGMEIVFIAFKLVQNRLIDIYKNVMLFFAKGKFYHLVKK

[2] = biological target: T1, Potassium channel subfamily K member 18; test: (§1) Activation of human TRESK channel relative to control
[3] = biological target: T2, Potassium channel subfamily K member 18 (Homo sapiens) (UniProt Q7Z418); test: as §1
T2 sequence (whole entry): T1 sequence (Q7Z418 whole entry)

[4] = biological target: T2, Potassium channel subfamily K member 18 (Homo sapiens); test: Activation of human TRESK channel expressed in HEK293 cells assessed as induction of channel current at 100 uM by whole cell patch clamp assay relative to control; format: cell-based
[5] = Lipophilicity, log D of the compound; format: physicochemical; conditions: octanol/water
[6] = biological target: T1, Potassium channel subfamily K member 18; test: (§2) Activation of human TRESK channel expressed in HEK293 cells assessed as induction of channel current by whole cell patch clamp assay; format: cell-based
[7] = biological target: T2, Potassium channel subfamily K member 18 (Homo sapiens); test: as §2; format: cell-based
[8] = biological target: T1, Potassium channel subfamily K member 18; test: Channel blocking activity at human TRESK channel

Structure (SMILES): O=C(O)c1ccccc1Nc1cccc2c1CCCC2
- Activity [1]: Active

Structure (SMILES): c1ccc(-c2nnn[nH]2)c(Nc2cccc3c2CCCC3)c1
- EC50 [2]: 6 µM
- Emax [3]: 75%

Structure (SMILES): CCCCc1cccc(Nc2ccccc2C(=O)O)c1
- Activity [4]: Active

Structure (SMILES): O=C(O)c1ccccc1Nc1cccc(C(F)(F)F)c1 [FLUFENAMIC ACID]
- logD [5]: 2.2
- EC50 [2]: > 100 µM
- EC50 [6]: 474 µM

Structure (SMILES): CC(C)(C)c1cccc(Nc2ccccc2C(=O)O)c1
- logD [5]: 3.2
- EC50 [6]: 45 µM
- Emax [7]: 354%

Structure (SMILES): NC(=O)c1ccccc1Nc1cccc(C(F)(F)F)c1
- Activity [1]: Active

Structure (SMILES): O=C(O)c1ccccc1Nc1cccc(-c2ccccc2)c1
- Activity [1]: Active

Structure (SMILES): CCN(CC)CC(=O)Nc1c(C)cccc1C [LIDOCAINE]
- IC50 [8]: > 100 µM

Structure (SMILES): CC(C)(C)c1cccc(Nc2ccccc2-c2nnn[nH]2)c1
- logD [5]: 2.7
- EC50 [6]: 18.8 µM
- Emax [7]: 102%

Structure (SMILES): N#Cc1ccccc1Nc1cccc(C(F)(F)F)c1
- Activity [1]: Active

Structure (SMILES): Cc1cc(C)c(Nc2ccccc2C(=O)O)c(C)c1
- Activity [1]: Active

Structure (SMILES): FC(F)(F)c1cccc(Nc2ccccc2-c2nnn[nH]2)c1
- Activity [1]: Active

Structure (SMILES): O=C(O)c1ccccc1Nc1cccc(Oc2ccccc2)c1
- Activity [1]: Active
